Reference: US20230111310A1, “CARBOXYLIC ACID DERIVATIVE-SUBSTITUTED IMINO ARYL COMPOUND, PREPARATION METHOD THEREFOR, HERBICIDAL COMPOSITION AND USE THEREOF” (Qingdao Kingagroot Chemical Compound Co., Ltd., priority 2020, published 2023)

Key:
Format in all cases: in vivo
Abutilon theophrasti [1] = test: Weeding effect in post-emergence stage; details: Dose 15 g/ha
Summary of the method: (§1)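 Read-out is growth control rate, counted 3 weeks post-spray and averaged over three repeats. Greenhouse plants at the 2-3 leaf stage received spray-tower application at 500, 250, 125, 60, 30, 15 or 7.5 g/ha, with methyl oleate EC (1.5 liter/ha) and Tween 80 added.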

Alopecurus japonicus = test: Weeding effect in post-emergence stage; details: Dose 15 g/ha
Summary of the method: as §1

Digitaria sanguinalis = test: Weeding effect in post-emergence stage; details: Dose 15 g/ha
Summary of the method: as §1

Eleusine indica = test: Weeding effect in post-emergence stage; details: Dose 15 g/ha
Summary of the method: as §1

Setaria viridis [2] = test: Weeding effect in post-emergence stage; details: Dose 15 g/ha
Summary of the method: as §1

Echinochloa crusgalli = test: Weeding effect in post-emergence stage; details: Dose 15 g/ha
Summary of the method: as §1

Abutilon theophrasti [3] = test: Weeding effect in pre-emergence stage; details: 30 g/ha, 4 weeks
Summary of the method: (§2)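 Pots were kept in the greenhouse for 4 weeks and then rated for growth control on activity-level criteria. Spraying took place immediately after sowing at application rates of 500 to 7.5 g/ha, using an acetone/tween 80 formulation diluted with water, on seeds under 0.5-2 cm of soil.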

Amaranthus retroflexus = test: Weeding effect in pre-emergence stage; details: 30 g/ha, 4 weeks
Summary of the method: as §2

Capsella bursa-pastoris = test: Weeding effect in pre-emergence stage; details: 30 g/ha, 4 weeks
Summary of the method: as §2

Descurainia sophia = test: Weeding effect in pre-emergence stage; details: 30 g/ha, 4 weeks
Summary of the method: as §2

Setaria viridis [4] = test: Weeding effect in pre-emergence stage; details: 30 g/ha, 4 weeks
Summary of the method: as §2

Veronica didyma Tenore = test: Weeding effect in pre-emergence stage; details: 30 g/ha, 4 weeks
Summary of the method: as §2

Peanut = test: Pre-emergence stage, crop selectivity; details: 30 g/ha, 4 weeks
Summary of the method: as §2

Soybeans = test: Pre-emergence stage, crop selectivity; details: 30 g/ha, 4 weeks
Summary of the method: as §2

corn = test: Pre-emergence stage, crop selectivity; details: 30 g/ha, 4 weeks
Summary of the method: as §2

cotton = test: Pre-emergence stage, crop selectivity; details: 30 g/ha, 4 weeks
Summary of the method: as §2

Leptochloa chinensis = test: Weed control effect evaluation in rice field; details: rice field pot, 30 g/ha, 14 days after treatment
Text: (§3) The activity level criteria for plant damage (i.e., growth control rate) are as follows:
(§4) Rice field soil was loaded into a 1/1,000,000 ha pot. The seeds of Echinochloa crusgalli. Scirpus juncoides. Bidens tripartita L., Monochoria vaginalis, and Leptochloa chinensis were sowed and gently covered with soil, then left to stand still in greenhouse in the state of 0.5-1 cm of water storage. The tuber of Sagittaria trifolia was planted in the next day or 2 days later. It was kept at 3-4 cm of water storage thereafter. The weeds were treated by dripping the WP or SC water diluents prepared according to the common preparation method of the compounds of the present invention with pipette homogeneously to achieve specified effective amount when Echinochloa crusgalli. Scirpus juncoides, Bidens tripartita L., Monochoria vaginalis, and Leptochloa chinensis reached 0.5 leaf stage and Sagittaria trifolia reached the time point of primary leaf stage.
(§5) The fertility condition of Echinochloa crusgalli. Scirpus juncoides. Bidens tripartita L., Monochoria vaginalis, Leptochloa chinensis and Sagittaria trifolia 14 days after the treatment of the compound of the invention and the fertility condition of rice 21 days after the treatment of the compound of the invention respectively with the naked eye. Evaluate the weed control effect with the above activity standard level. Many compounds show excellent activity and selectivity.

Monochoria vaginalis = test: Weed control effect evaluation in rice field; details: rice field pot, 30 g/ha, 14 days after treatment
Text: as §3, §4, §5

Scirpus juncoides = test: Weed control effect evaluation in rice field; details: rice field pot, 30 g/ha, 14 days after treatment
Text: as §3, §4, §5

Rice = test: Transplanted rice safety evaluation; details: transplanted japonica rice, 30 g/ha, 21 days after treatment
Experimental: as §3
In addition, the rice field soil that loaded into the 1/1,000,000 ha pot was leveled to keep water storage at 3-4 cm depth. The 5 leaf stage rice (japonica rice) was transplanted at 3 cm of transplanting depth the next day. The compound of the present invention was treated by the same way after 5 days of transplantation.
as §5

[5] = fresh weight control rate level
[6] = level of fresh weight growth control rate

## CC(C)N(C)S(=O)(=O)NC(=O)[C@@H](C)O/N=C/c1cc(-n2c(=O)cc(C(F)(F)F)n(C)c2=O)c(F)cc1Cl [421(R)]
Abutilon theophrasti [1]; [5]
  Weeding effect in post-emergence stage, Abutilon theophrasti (level): 5 (Level 5: growth control rate is above 85%)
Alopecurus japonicus; [5]
  Weeding effect in post-emergence stage, Alopecurus japonicus (level): 5 (Level 5: growth control rate is above 85%)
Digitaria sanguinalis; [5]
  Weeding effect in post-emergence stage, Digitaria sanguinalis (level): 5 (Level 5: growth control rate is above 85%)
Eleusine indica; [5]
  Weeding effect in post-emergence stage, Eleusine indica (level): 5 (Level 5: growth control rate is above 85%)
Setaria viridis [2]; [5]
  Weeding effect in post-emergence stage, Setaria viridis (level): 5 (Level 5: growth control rate is above 85%)
Echinochloa crusgalli; [5]
  Weeding effect in post-emergence stage, Echinochloa crusgalli (level): 5 (Level 5: growth control rate is above 85%)
Abutilon theophrasti [3]
  activity level (growth control rate) Abutilon theophrasti: 5 (Level 5: growth control rate is above 85%)
Amaranthus retroflexus
  activity level (growth control rate) Amaranthus retroflexus: 5 (Level 5: growth control rate is above 85%)
Capsella bursa-pastoris
  activity level (growth control rate) Capsella bursa-pastoris: 5 (Level 5: growth control rate is above 85%)
Descurainia sophia
  activity level (growth control rate) Descurainia sophia: 5 (Level 5: growth control rate is above 85%)
Setaria viridis [4]
  activity level (growth control rate) Setaria viridis: 5 (Level 5: growth control rate is above 85%)
Veronica didyma Tenore
  activity level (growth control rate) Veronica didyma Tenore: 5 (Level 5: growth control rate is above 85%)
Peanut
  plant damage level Peanut: 0 (Level 0: growth control rate is less than 5%)
Soybeans
  plant damage level Soybeans: 0 (Level 0: growth control rate is less than 5%)
corn
  plant damage level Corn: 0 (Level 0: growth control rate is less than 5%)
cotton
  plant damage level Cotton: 0 (Level 0: growth control rate is less than 5%)
Leptochloa chinensis
  activity level (weed control effect) Leptochloa chinensis: 5 (Level 5: growth control rate is above 85%)
Monochoria vaginalis
  activity level (weed control effect) Monochoria vaginalis: 5 (Level 5: growth control rate is above 85%)
Scirpus juncoides
  activity level (weed control effect) Scirpus juncoides: 5 (Level 5: growth control rate is above 85%)
Rice
  plant damage level Rice: 0 (Level 0: growth control rate is less than 5%)

## CCOC(=O)[C@@H](C)O/N=C/c1cc(-n2c(=O)cc(C(F)(F)F)n(C)c2=O)c(F)cc1Cl [196(R)]
Abutilon theophrasti [1]; [6]
  Weeding effect in post-emergence stage, Abutilon theophrasti: 5 (Level 5: growth control rate is above 85%)
Alopecurus japonicus; [6]
  Weeding effect in post-emergence stage, Alopecurus japonicus: 5 (Level 5: growth control rate is above 85%)
Digitaria sanguinalis; [6]
  Weeding effect in post-emergence stage, Digitaria sanguinalis: 5 (Level 5: growth control rate is above 85%)
Eleusine indica; [6]
  Weeding effect in post-emergence stage, Eleusine indica: 5 (Level 5: growth control rate is above 85%)
Setaria viridis [2]; [6]
  Weeding effect in post-emergence stage, Setaria viridis: 5 (Level 5: growth control rate is above 85%)
Echinochloa crusgalli; [6]
  Weeding effect in post-emergence stage, Echinochloa crusgalli: 5 (Level 5: growth control rate is above 85%)
Abutilon theophrasti [3]
  activity level (growth control rate) Abutilon theophrasti: 5 (Level 5: growth control rate is above 85%)
Amaranthus retroflexus
  activity level (growth control rate) Amaranthus retroflexus: 5 (Level 5: growth control rate is above 85%)
Capsella bursa-pastoris
  activity level (growth control rate) Capsella bursa-pastoris: 5 (Level 5: growth control rate is above 85%)
Descurainia sophia
  activity level (growth control rate) Descurainia sophia: 5 (Level 5: growth control rate is above 85%)
Setaria viridis [4]
  activity level (growth control rate) Setaria viridis: 5 (Level 5: growth control rate is above 85%)
Veronica didyma Tenore
  activity level (growth control rate) Veronica didyma Tenore: 5 (Level 5: growth control rate is above 85%)
Peanut
  plant damage level Peanut: 0 (Level 0: growth control rate is less than 5%)
Soybeans
  plant damage level Soybeans: 0 (Level 0: growth control rate is less than 5%)
corn
  plant damage level Corn: 0 (Level 0: growth control rate is less than 5%)
cotton
  plant damage level Cotton: 0 (Level 0: growth control rate is less than 5%)
Leptochloa chinensis
  activity level (weed control effect) Leptochloa chinensis: 5 (Level 5: growth control rate is above 85%)
Monochoria vaginalis
  activity level (weed control effect) Monochoria vaginalis: 5 (Level 5: growth control rate is above 85%)
Scirpus juncoides
  activity level (weed control effect) Scirpus juncoides: 5 (Level 5: growth control rate is above 85%)
Rice
  plant damage level Rice: 0 (Level 0: growth control rate is less than 5%)
